# Measured values taken from patent publication US8466290B2, “STAT3 inhibitor containing quinolinecarboxamide derivative as active ingredient” (Pharma IP General Incorporated Association, priority 2008, dated 2013).
# Tested on: STAT3
# Assay: STAT3 transcription inhibition test (reporter gene method, oncostatin M stimulation)
# Type: cell-based
# Conditions: Homo sapiens; compound at 100 μM; STAT3 reporter HeLa stable cell line; oncostatin M 10 ng/mL, 4 hours; read-out: STAT3 transcription inhibitory activity (%)
# Experimental: The inhibition of STAT3 transcription was evaluated by using STAT3 reporter HeLa stable cell line (Panomics Inc., catalog No. RC0003), a cell line for the reporter gene method, and performing the following method according to the appendix included therein.
# STAT3 reporter HeLa stable cell line subcultured and maintained in a Dulbecco's modified Eagle's medium (DMEM) containing 10% fetal bovine serum, 100 units/mL penicillin, and 100 μg/mL streptomycin was inoculated at a concentration of 40000 cells/well to a 96-well plate (white) and attached to the plate by overnight incubation at 37° C. under 5% CO2. After addition of each evaluation compound adjusted to various concentrations (adjusted with a DMSO solution), the cells were precultured for 1 hour. Then, oncostatin M for activating STAT3 was added at a final concentration 10 ng/mL, and the cells were further cultured at 37° C. under 5% CO2 for 4 hours. Luciferase activity derived from the cells was determined using Steady-Glo Luciferase Assay System (Promega Corp.), and STAT3 transcriptional activity scores were calculated according to the following formula: STAT3 transcriptional activity score (%)=100×(Lchem−L0)/(LDMSO−L0) Lo: luminescence intensity obtained without stimulation with oncostatin M Lchem: luminescence intensity obtained by the addition of a test sample LDMSO: luminescence intensity obtained by the addition of only a solvent for dissolving a test sample
row,Compound,inhibition at 100 µM [%]
1,"CCCC(=O)Nc1ccc2nc(-c3ccccc3)cc(C(=O)Nc3nnc(-c4ccco4)o3)c2c1 [Ia-94, 6-butyrylamino-N-[5-(2-furyl)-1,3,4-oxadiazol-2-yl]-2-phenyl-4-quinolinecarboxamide]",89
2,"N#Cc1cccc(-c2cc(C(=O)Nc3nnc(-c4ccco4)o3)c3ccccc3n2)c1 [Ia-43, 2-(3-cyanophenyl)-N-[5-(2-furyl)-1,3,4-oxadiazol-2-yl]-4-quinolinecarboxamide]",71
3,"O=C(Nc1nnc(-c2cccnc2)o1)c1cc(-c2ccccc2)nc2ccccc12 [Ia-9, 2-phenyl-N-[5-(3-pyridyl)-1,3,4-oxadiazol-2-yl]-4-quinolinecarboxamide]",65
4,"O=C(Nc1nnc(-c2ccco2)o1)c1cc(-c2ccccc2)nc2ccc(-c3ccc(O)cc3)cc12 [Ia-98, N-[5-(2-furyl)-1,3,4-oxadiazol-2-yl]-6-(4-hydroxyphenyl)-2-phenyl-4-quinolinecarboxamide]",> 100
5,"O=C(Nc1nnc(-c2ccco2)o1)c1cc(-c2ccco2)nc2c(Cl)cccc12 [Ia-79, 8-chloro-2-(2-furyl)-N-[5-(2-furyl)-1,3,4-oxadiazol-2-yl]-4-quinolinecarboxamide]",> 100
6,"O=C(Nc1nnc(-c2ccco2)o1)c1cc(-c2cccs2)nc2c(Cl)cccc12 [Ia-32, 8-chloro-N-[5-(2-furyl)-1,3,4-oxadiazol-2-yl]-2-(2-thienyl)-4-quinolinecarboxamide]",90
7,"O=C(Nc1nnc(-c2ccco2)o1)c1cc(-c2cccc([N+](=O)[O-])c2)nc2ccccc12 [Ia-16, N-[5-(2-furyl)-1,3,4-oxadiazol-2-yl]-2-(3-nitrophenyl)-4-quinolinecarboxamide]",62
8,"O=C(Nc1nnc(-c2ccccc2)o1)c1cc(-c2cccs2)nc2ccccc12 [Ia-j, N-(5-phenyl-1,3,4-oxadiazol-2-yl)-2-(2-thienyl)-4-quinolinecarboxamide]",91
9,"COCCOc1ccc2nc(-c3ccccc3)cc(C(=O)Nc3nnc(-c4ccco4)o3)c2c1 [Ia-89, N-[5-(2-furyl)-1,3,4-oxadiazol-2-yl]-6-(2-methoxyethoxy)-2-phenyl-4-quinolinecarboxamide]",> 100
10,"O=C(Nc1nnc(-c2ccco2)o1)c1cc(-c2ccco2)nc2ccccc12 [Ia-18, 2-(2-furyl)-N-[5-(2-furyl)-1,3,4-oxadiazol-2-yl]-4-quinolinecarboxamide]",68
11,"O=C(Nc1nnc(-c2ccoc2)o1)c1cc(-c2ccccc2)nc2ccccc12 [Ia-2, N-[5-(3-furyl)-1,3,4-oxadiazol-2-yl]-2-phenyl-4-quinolinecarboxamide]",> 100
12,"O=C(Nc1nnc(-c2ccco2)s1)c1cc(-c2ccccc2)nc2ccccc12 [Ib-4, N-[5-(2-furyl)-1,3,4-thiadiazol-2-yl]-2-phenyl-4-quinolinecarboxamide]",58
13,"Cc1cc(-c2cc(C(=O)Nc3nnc(-c4ccncc4)s3)c3cc(Cl)ccc3n2)c(C)s1 [Ib-f, 6-chloro-2-(2,5-dimethyl-3-thienyl)-N-[5-(4-pyridyl)-1,3,4-thiadiazol-2-yl]-4-quinolinecarboxamide]",100
14,"O=C(Nc1nnc(-c2ccco2)o1)c1cc(-c2ccccc2Cl)nc2ccccc12 [Ia-37, 2-(2-chlorophenyl)-N-[5-(2-furyl)-1,3,4-oxadiazol-2-yl]-4-quinolinecarboxamide]",100
15,"COc1ccc(OC)c(-c2cc(C(=O)Nc3nnc(-c4ccncc4)s3)c3ccccc3n2)c1 [Ib-c, 2-(2,5-dimethoxyphenyl)-N-[5-(4-pyridyl)-1,3,4-thiadiazol-2-yl]-4-quinolinecarboxamide]",> 100
16,"O=C(Nc1nnc(-c2ccco2)o1)c1cc(N2CCCCC2)nc2ccccc12 [Ia-14, N-[5-(2-furyl)-1,3,4-oxadiazol-2-yl]-2-piperidino-4-quinolinecarboxamide]",63
17,"O=C(Nc1nnc(-c2ccc([N+](=O)[O-])cc2)o1)c1cc(-c2ccccc2)nc2ccccc12 [Ia-7, N-[5-(4-nitrophenyl)-1,3,4-oxadiazol-2-yl]-2-phenyl-4-quinolinecarboxamide]",65
18,"Cc1ccc(-c2cc(C(=O)Nc3nnc(-c4ccco4)o3)c3ccccc3n2)c(C)c1 [Ia-56, N-[5-(2-furyl)-1,3,4-oxadiazol-2-yl]-2-(2,4-dimethylphenyl)-4-quinolinecarboxamide]",99
19,"CN(C)CCOc1ccc2nc(-c3ccccc3)cc(C(=O)Nc3nnc(-c4ccco4)o3)c2c1 [Ia-88, N-[5-(2-furyl)-1,3,4-oxadiazol-2-yl]-6-[2-(dimethylamino)ethoxy]-2-phenyl-4-quinolinecarboxamide]",76
20,"Cc1c(Cl)ccc2c(C(=O)Nc3nnc(-c4ccco4)o3)cc(-c3ccco3)nc12 [Ia-28, 7-chloro-2-(2-furyl)-N-[5-(2-furyl)-1,3,4-oxadiazol-2-yl]-8-methyl-4-quinolinecarboxamide]",> 100
21,"Nc1ccccc1-c1cc(C(=O)Nc2nnc(-c3ccco3)o2)c2ccccc2n1 [Ia-40, 2-(2-aminophenyl)-N-[5-(2-furyl)-1,3,4-oxadiazol-2-yl]-4-quinolinecarboxamide]",62
22,"Cc1ccc(-c2cc(C(=O)Nc3nnc(-c4ccncc4)s3)c3ccccc3n2)o1 [Ib-e, 2-(5-methyl-2-furyl)-N-[5-(4-pyridyl)-1,3,4-thiadiazol-2-yl]-4-quinolinecarboxamide]",85
23,"O=C(Nc1nnc(-c2ccco2)o1)c1cc(-c2ccccc2)nc2ccc(OCc3ccccc3)cc12 [Ia-90, 6-benzyloxy-N-[5-(2-furyl)-1,3,4-oxadiazol-2-yl]-2-phenyl-4-quinolinecarboxamide]",> 100
24,"O=C(Nc1nnc(-c2ccc(Cl)cc2)o1)c1cc(-c2ccccc2)nc2ccccc12 [Ia-5, N-[5-(4-chlorophenyl)-1,3,4-oxadiazol-2-yl]-2-phenyl-4-quinolinecarboxamide]",> 100
25,"O=C(Nc1nnc(-c2ccncc2)s1)c1cc(-c2cccnc2)nc2ccc(Cl)cc12 [Ib-d, 6-chloro-2-(3-pyridyl)-N-[5-(4-pyridyl)-1,3,4-thiadiazol-2-yl]-4-quinolinecarboxamide]",73
26,"Cc1c(Cl)ccc2c(C(=O)Nc3nnc(-c4ccco4)o3)cc(-c3ccccc3)nc12 [Ia-26, 7-chloro-N-[5-(2-furyl)-1,3,4-oxadiazol-2-yl]-8-methyl-2-phenyl-4-quinolinecarboxamide]",73
27,"O=C(Nc1nnc(-c2ccc([N+](=O)[O-])o2)o1)c1cc(-c2ccccc2)nc2ccccc12 [Ia-84, N-[5-(5-nitro-2-furyl)-1,3,4-oxadiazol-2-yl]-2-phenyl-4-quinolinecarboxamide]",56
28,"O=C(Nc1nnc(-c2ccco2)o1)c1cc(-c2ccc(O)cc2)nc2ccccc12 [Ia-50, N-[5-(2-furyl)-1,3,4-oxadiazol-2-yl]-2-(4-hydroxyphenyl)-4-quinolinecarboxamide]",73

# Same assay, conditions: compound at 100 μM; STAT3 reporter HeLa stable cell line; oncostatin M 10 ng/mL, 4 hours
row,Compound,STAT3 transcription inhibitory activity (%)
1,"COc1ccc2cc(-c3cc(C(=O)Nc4nnc(-c5ccco5)o4)c4ccccc4n3)ccc2c1 [Ia-61, N-[5-(2-furyl)-1,3,4-oxadiazol-2-yl]-2-(6-methoxy-2-naphthyl)-quinolinecarboxamide]",>100
2,"N-[(5-phenyl-1,3,4-oxadiazol-2-yl)methyl]-4-quinolinecarboxamide [Ia-10]",>100

# Tested on: MDA-MB-435S
# Assay: MDA-MB-435S cell growth inhibitory activity
# Type: cell-based
# Conditions: Homo sapiens, compound at 20 μM, 72 hours, read-out: Cell growth inhibitory activity (%)
# Experimental: […] Each well was washed three times with a medium. Then, after addition of 100 μL/well of a medium and 20 μL/well of CellTiter 96 AQueous One Solution Reagent (Promega Corp.), the cells were incubated at 37° C. for 2 hours in the presence of 5% CO2.
row,Compound,inhibition at 20 µM [%]
1,"N#Cc1cccc(-c2cc(C(=O)Nc3nnc(-c4ccco4)o3)c3ccccc3n2)c1 [Ia-43, 2-(3-cyanophenyl)-N-[5-(2-furyl)-1,3,4-oxadiazol-2-yl]-4-quinolinecarboxamide]",72
2,"O=C(Nc1nnc(-c2ccco2)o1)c1cc(-c2ccccc2)nc2ccc(-c3ccc(O)cc3)cc12 [Ia-98, N-[5-(2-furyl)-1,3,4-oxadiazol-2-yl]-6-(4-hydroxyphenyl)-2-phenyl-4-quinolinecarboxamide]",86
